Assay results as given in patent US20220257484A1, “WHOLE MOUTH MALADOR CONTROL BY A COMBINATION OF ANTIBACTERIAL AND DEODORIZING AGENTS” (The Procter & Gamble Company, priority 2010, published 2022).
Values joined by “and” are separate entries in the source; they are usually repeats but may differ in a detail not shown here. Equal entries are not always repeated.

Experiment: in-vitro headspace GC-MS odor-neutralizing test, Relative Odor Activity Value (ROAV)
Details: recreated garlic odor, 0.05% active concentration, vs control, negative value indicates no reduction
Description: The odor-neutralizing or deodorization activity of target actives was evaluated against a recreated garlic odor using an in-vitro headspace gas chromatography-mass spectrometry (GC-MS) method described below. A mixture of five sulfur compounds (ethanethiol, 1-propanethiol, […], methyl allyl disulfide and […]) was used to simulate a garlic odor. […] [See e.g., J. Taucher, et al. J. Agric. Food Chem. (1996), 44 (12), 3778-3782; F. Suarez, et al. Am. J. Physiol. Gastrointest. Liver Physiol. (1999), 276: G425-G430; I. Laakso, et al. Planta Med. (1989), 55, 257-261; X. J. Cai, et al. J. Agric. Food Chem. (1995), 43, 1751-1753; T. Minami, et al. J. Food Sci. (1989), 54, 763-765.]
The following procedure and instrumentation were used to evaluate the relative odor-neutralizing activity of various compounds.
1) Purge product base (e.g., mouthrinse or dental solution) with nitrogen for 10 minutes. 2) Purge all sample preparation vials with stir bars inside for 1 minute. 3) Add 3960 μl product base to control vials (4 ml capacity) and 3560 μl product base to test sample vials (4 ml capacity). 4) Make garlic stock by mixing the following components in order: 600 μl ethanol; 500 μl ethanethiol; 80 μl 1-propanethiol; 30 μl […]; 20 μl methyl allyl disulfide; 70 μl […]. 5) Add 40 ul of garlic stock to each control and test sample vial. 6) Stir all samples to mix product base and garlic stock for a total time of 20 min. To each test sample vial, add 400 μl of test active after 15 min. of stirring and allow test active mix in and react for 5 min. 7) After mixing, transfer 50 μl each of control sample and test sample to nitrogen purged GC headspace vials. 8) Place control and test sample vials on headspace autosampler for GC analysis. Each sample is equilibrated at 32° C. for 3 min. before injection into the GC instrument.
A Relative OAV is calculated for each component by dividing its peak area by its odor threshold value. Odor threshold values for these compounds are reported in the literature. […] A negative value indicates no reduction in ROAV.

| Compound | % Reduction of ROAV [%] | further results |
| --- | --- | --- |
| CC1=CC(=O)[C@@H](C(C)C)CC1 [(−) Piperitone] | 10.19 | – |
| CCCCCCCC=O [Octanal, reference compound] | −28.76 | % Reduction of ROAV (listed as octanal): no reduction of ROAV |
| COc1ccc(C=CC=O)cc1 [para-Methoxycinnamaldehyde, reference compound] | −0.49 | – |
| COc1ccc(C=O)cc1OC [Methyl vanillin (Veratraldehyde), 3,4-Dimethoxybenzaldehyde] | 4.45 | – |
| COc1ccc(C=O)cc1 [Anisaldehyde, 4-methoxybenzaldehyde] | 20.76 | % Reduction of ROAV (listed as 4-Methoxybenzaldehyde (Anisaldehyde)): 20.76%; % Reduction of ROAV (listed as anisaldehyde): 20.76% and > 20% |
| CCCCCC/C(C=O)=C\c1ccccc1 [Hexyl cinnamaldehyde, reference compound] | −1.19 | – |
| Cc1ccc(C=O)cc1 [4-methylbenzaldehyde] | 3.67 | – |
| O=Cc1ccccc1O [Salicylaldehyde, 2-Hydroxybenzaldehyde, reference compound] | −5.87 | – |
| L(−) Carvone | 3.27 | – |
| O=Cc1ccc2c(c1)OCO2 [Heliotropin, reference compound] | −2.92 | – |
| CCc1occc(=O)c1O [Ethyl maltol, reference compound] | −3.46 | – |
| O=CC=Cc1ccccc1 [Cinnamaldehyde] | 10.73 | – |
| CC(C)=CCCC(C)=CC=O [Citral, reference compound] | −19.54 | – |
| CC(=O)/C=C/C1=C(C)CCCC1(C)C [β-Ionone] | 17.56 | – |
